From patent US9226916B2, “Pyrrolidine derivatives” (HOFFMANN-LA ROCHE INC., priority 2009, dated 2016)
Where two headings read alike, the source gives them in different places.

Molecular target: T1, recombinant human NK3 receptor (Homo sapiens, UniProt P29371)
T1 construct: expressed in transfected cells; host or cells: HEK293 cells, transient expression; membranes
T1 sequence (P29371 1-465): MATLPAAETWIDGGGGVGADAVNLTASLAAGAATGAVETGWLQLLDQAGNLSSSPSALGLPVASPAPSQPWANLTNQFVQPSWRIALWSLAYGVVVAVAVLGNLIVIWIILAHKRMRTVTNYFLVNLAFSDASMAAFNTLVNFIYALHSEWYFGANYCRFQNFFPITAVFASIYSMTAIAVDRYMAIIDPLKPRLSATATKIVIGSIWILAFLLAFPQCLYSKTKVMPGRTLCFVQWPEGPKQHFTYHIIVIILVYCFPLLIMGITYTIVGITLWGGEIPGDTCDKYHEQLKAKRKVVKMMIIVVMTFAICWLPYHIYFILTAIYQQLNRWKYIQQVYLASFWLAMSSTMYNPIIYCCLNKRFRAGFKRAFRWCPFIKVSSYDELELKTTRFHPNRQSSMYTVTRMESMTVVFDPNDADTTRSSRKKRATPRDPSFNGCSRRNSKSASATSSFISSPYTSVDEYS
Assay: [3H]SR142801 competition binding assay

[1] = hNK-3 receptor affinity, membranes from HEK293 cells transiently expressing recombinant human NK3 receptor, [3H]SR142801, Cheng-Prussoff, read-out: Data Ki

Ki [1] | SMILES | Ki
 | COc1ccc(OC(=O)N(C)[C@H]2CN(C(=O)C3CCN(CC4CC4)CC3)C[C@@H]2c2ccc(Cl)c(Cl)c2)cc1 [Example 20, [(3R,4S)-1-(1-Cyclopropylmethyl-piperidine-4-carbonyl)-4-(3,4-dichloro-phenyl)-pyrrolidin-3-yl]-methyl-carbamic acid 4-methoxy-phenyl ester] | 72.4 nM
 | COc1ccc(OC(=O)N(C)[C@@H]2CN(C(=O)C3CCN(CC4CC4)CC3)C[C@H]2c2ccc(Cl)c(Cl)c2)cc1 [Example 21, [(3S,4R)-1-(1-Cyclopropylmethyl-piperidine-4-carbonyl)-4-(3,4-dichloro-phenyl)-pyrrolidin-3-yl]-methyl-carbamic acid 4-methoxy-phenyl ester] | 10.4 nM
81.1 nM | CN(C(=O)OCCC1CC1)[C@H]1CN(C(=O)C2CCN(C(=O)C3(C)CC3)CC2)C[C@@H]1c1ccc(Cl)c(Cl)c1 [Example 35, {(3R,4S)-4-(3,4-Dichloro-phenyl)-1-[1-(1-methyl-cyclopropanecarbonyl)-piperidine-4-arbonyl]-pyrrolidin-3-yl}-methyl-carbamic acid 2-cyclopropyl-ethyl ester] | 
33 nM | CN(C(=O)OCCC1CC1)[C@@H]1CN(C(=O)C2CCN(C(=O)C3(C)CC3)CC2)C[C@H]1c1ccc(Cl)c(Cl)c1 [Example 36, {(3S,4R)-4-(3,4-Dichloro-phenyl)-1-[1-(1-methyl-cyclopropanecarbonyl)-piperidine-4-arbonyl]-pyrrolidin-3-yl}-methyl-carbamic acid 2-cyclopropyl-ethyl ester] | 
 | CN(C(=O)Oc1ccc(F)cc1)[C@H]1CN(C(=O)C2CCN(C(=O)C3(C)CC3)CC2)C[C@@H]1c1ccc(Cl)cc1 [Example 38, {(3R,4S)-4-(4-Chloro-phenyl)-1-[1-(1-methyl-cyclopropanecarbonyl)-piperidine-4-carbonyl]-pyrrolidin-3-yl}-methyl-carbamic acid 4-fluoro-phenyl ester] | 42 nM
 | CN(C(=O)Oc1ccc(F)cc1)[C@@H]1CN(C(=O)C2CCN(C(=O)C3(C)CC3)CC2)C[C@H]1c1ccc(Cl)cc1 [Example 39, {(3S,4R)-4-(4-Chloro-phenyl)-1-[1-(1-methyl-cyclopropanecarbonyl)-piperidine-4-carbonyl]-pyrrolidin-3-yl}-methyl-carbamic acid 4-fluoro-phenyl ester] | 11 nM
 | CN(C(=O)Oc1ccc(F)cc1)[C@@H]1CN(C(=O)C2CCOCC2)C[C@H]1c1ccc(Cl)c(Cl)c1 [Example 51, [(3S,4R)-4-(3,4-Dichloro-phenyl)-1-(tetrahydro-pyran-4-carbonyl)-pyrrolidin-3-yl]-methyl-carbamic acid 4-fluoro-phenyl ester] | 1.8 nM
 | CN(C(=O)Oc1ccc(F)cc1)[C@@H]1CN(C(=O)[C@H]2CC[C@@H](O)CC2)C[C@H]1c1ccc(Cl)c(Cl)c1 [Example 60, [(3S,4R)-4-(3,4-Dichloro-phenyl)-1-(cis-4-hydroxy-cyclohexanecarbonyl)-pyrrolidin-3-yl]-methyl-carbamic acid 4-fluoro-phenyl ester] | 1.7 nM
67 nM | CN(C(=O)OCCCC(F)(F)F)[C@H]1CN(C(=O)C2CCN(C(=O)C3(C)CC3)CC2)C[C@@H]1c1ccc(Cl)c(Cl)c1 [Example 81, {(3R,4S)-4-(3,4-Dichloro-phenyl)-1-[1-(1-methyl-cyclopropanecarbonyl)-piperidine-4-carbonyl]-pyrrolidin-3-yl}-methyl-carbamic acid 4,4,4-trifluoro-butyl ester] | 
1.4 nM | CN(C(=O)OCCCC(F)(F)F)[C@@H]1CN(C(=O)C2CCN(C(=O)C3(C)CC3)CC2)C[C@H]1c1ccc(Cl)c(Cl)c1 [Example 82, {(3S,4R)-4-(3,4-Dichloro-phenyl)-1-[1-(1-methyl-cyclopropanecarbonyl)-piperidine-4-carbonyl]-pyrrolidin-3-yl}-methyl-carbamic acid 4,4,4-trifluoro-butyl ester] | 
 | CN(C(=O)Oc1ccc(F)cc1)[C@@H]1CN(C(=O)[C@H]2CC[C@H](O)CC2)C[C@H]1c1ccc(Cl)cc1 [Example 89, [(3S,4R)-4-(4-Chloro-phenyl)-1-(4-hydroxy-cyclohexanecarbonyl)-pyrrolidin-3-yl]-methyl-carbamic acid 4-fluoro-phenyl ester] | 20.2 nM
 | CN(C(=O)Oc1ccc(F)cc1)[C@@H]1CN(C(=O)C2CCOCC2)C[C@H]1c1ccc(Cl)cc1 [Example 90, [(3S,4R)-4-(4-Chloro-phenyl)-1-(tetrahydro-pyran-4-carbonyl)-pyrrolidin-3-yl]-methyl-carbamic acid 4-fluoro-phenyl ester] | 7.9 nM
 | CN(C(=O)Oc1ccc(F)cc1)[C@@H]1CN(C(=O)C2CCS(=O)(=O)CC2)C[C@H]1c1ccc(Cl)cc1 [Example 93, [(3S,4R)-4-(4-Chloro-phenyl)-1-(1,1-dioxo-hexahydro-1λ^6-thiopyran-4-carbonyl)-pyrrolidin-3-yl]-methyl-carbamic acid 4-fluoro-phenyl ester] | 6.6 nM
 | CN(C(=O)Oc1ccc(F)cc1)[C@@H]1CN(C(=O)C2CCN(c3ccc(C#N)cn3)CC2)C[C@H]1c1ccc(Cl)cc1 [Example 94, [(3S,4R)-4-(4-Chloro-phenyl)-1-(5′-cyano-3,4,5,6-tetrahydro-2H-[1,2′]bipyridinyl-4-carbonyl)-pyrrolidin-3-yl]-methyl-carbamic acid 4-fluoro-phenyl ester] | 0.2 nM
12.2 nM | CN(C(=O)OCCCC(F)(F)F)[C@H]1CN(C(=O)C2CCN(C(=O)C3(C)CC3)CC2)C[C@@H]1c1ccc(Cl)cc1 [Example 100, {(3R,4S)-4-(4-Chloro-phenyl)-1-[1-(1-methyl-cyclopropanecarbonyl)-piperidine-4-carbonyl]-pyrrolidin-3-yl}-methyl-carbamic acid 4,4,4-trifluoro-butyl ester] | 
 | CN(C(=O)Oc1ccc(F)cc1)[C@@H]1CN(C(=O)[C@H]2CC[C@H](C#N)CC2)C[C@H]1c1ccc(Cl)cc1 [Example 104, [(3S,4R)-4-(4-Chloro-phenyl)-1-(4-cyano-cyclohexanecarbonyl)-pyrrolidin-3-yl]-methyl-carbamic acid 4-fluoro-phenyl ester] | 7.4 nM
70.5 nM | CN(C(=O)OCC1(C)CC1)[C@@H]1CN(C(=O)C2CCN(C(=O)C3(C)CC3)CC2)C[C@H]1c1ccc(Cl)c(Cl)c1 [Example 105, {(3S,4R)-4-(3,4-Dichloro-phenyl)-1-[1-(1-methyl-cyclopropanecarbonyl)-piperidine-4-carbonyl]-pyrrolidin-3-yl}-methyl-carbamic acid 1-methyl-cyclopropylmethyl ester] | 
1 nM | CN(C(=O)OCC1(C)CC1)[C@H]1CN(C(=O)C2CCN(C(=O)C3(C)CC3)CC2)C[C@@H]1c1ccc(Cl)c(Cl)c1 [Example 106, {(3R,4S)-4-(3,4-Dichloro-phenyl)-1-[1-(1-methyl-cyclopropanecarbonyl)-piperidine-4-carbonyl]-pyrrolidin-3-yl}-methyl-carbamic acid 1-methyl-cyclopropylmethyl ester] | 
58.6 nM | CN(C(=O)O[C@H]1CC[C@@H](C(F)(F)F)CC1)[C@H]1CN(C(=O)C2CCN(C(=O)C3(C)CC3)CC2)C[C@@H]1c1ccc(Cl)c(Cl)c1 [Example 107, {(3R,4S)-4-(3,4-Dichloro-phenyl)-1-[1-(1-methyl-cyclopropanecarbonyl)-piperidine-4-carbonyl]-pyrrolidin-3-yl}-methyl-carbamic acid 4-trifluoromethyl-cyclohexyl ester] | 
